The NIST ThermoML archive (doi:10.1021/acs.jced.6b00430)
Numbers after ± are expanded uncertainties.

Assays:
[1] = xn = mol fraction of the nth substance listed; settings: 100 kPa, Liquid, x2 = 0; for mass density: Vibrating tube method
[2] = 100 kPa, Liquid; for viscosity: Concentric cylinders viscometry; for mass density: Vibrating tube method

CN(C)C=O [dimethylformamide] + O=[PH](O)O
[1], Concentric cylinders viscometry
Settings	viscosity [mPa·s]
298.15 K	0.783 ± 0.047
308.15 K	0.699 ± 0.042
318.15 K	0.623 ± 0.038
328.15 K	0.555 ± 0.034
338.15 K	0.495 ± 0.03

[1]
Settings	mass density [kg/m3]
298.15 K	943.92 ± 10
308.15 K	934.35 ± 10
318.15 K	924.72 ± 10
328.15 K	915.06 ± 10
338.15 K	905.35 ± 10
348.15 K	895.57 ± 10

O [water] + O=[PH](O)O
[1], Capillary tube (Ostwald / Ubbelohde) method
Settings	viscosity [mPa·s]
298.15 K	0.89 ± 0.054
308.15 K	0.719 ± 0.043
318.15 K	0.596 ± 0.036
328.15 K	0.504 ± 0.03
338.15 K	0.434 ± 0.026

[1]
Settings	mass density [kg/m3]
328.15 K	985.69 ± 10
338.15 K	980.55 ± 10

O [water]
[2]
Settings	mass density [kg/m3]	viscosity [mPa·s]
298.15 K	–	0.89 ± 0.054
308.15 K	–	0.719 ± 0.044
318.15 K	–	0.596 ± 0.036
328.15 K	985.69 ± 10	0.504 ± 0.031
338.15 K	980.55 ± 10	0.434 ± 0.026

CN(C)C=O [dimethylformamide]
[2]
Settings	mass density [kg/m3]	viscosity [mPa·s]
298.15 K	943.92 ± 10	0.783 ± 0.047
308.15 K	934.35 ± 10	0.699 ± 0.042
318.15 K	924.72 ± 10	0.623 ± 0.038
328.15 K	915.06 ± 10	0.555 ± 0.034
338.15 K	905.35 ± 10	0.495 ± 0.03
348.15 K	895.57 ± 10	–
